Reference: US20120053119A1, “THERAPEUTIC METHOD FOR INCREASING PANCREATIC BETA CELL MASS” (priority 2009, published 2012)

Tests used:
Format in all cases: cell-based
[1] = test system: beta-catenin; assay: Western immunoblot of total and active (unphosphorylated) beta-catenin in INS-1 cells
Experimental: FIG. 5. Inhibition of TCF7L2 or beta-catenin suppresses SDF-1 induced TOPflash activity. A. Dominant-negative TCF7L2 inhibits both basal and SDF-1-induced TOPflash activity. B. SiRNAs to beta-catenin SiRNAs inhibit SDF-1-stimulated Wnt signaling in INS-1 cells. INS-1 Cells were transfected and preincubated with TOPflash and the combination of either siRNAs 1 and 2, or scrambled siRNA and then treated for 4 hrs with 1 nM SDF-1 or control vehicle. Data are normalized for transfection efficiency by co-transfected beta-galactosidase and represent means±S.D. of three experiments. C. SDF-1 stabilizes beta-catenin through GPCR coupled Galphai/o. INS-1 cell cultures were stimulated with SDF-1 for the indicated times. Immunoblot analyses with anti-beta-catenin or anti-unphosphorylated beta-catenin (active beta-catenin).
Western Immunoblots Membrane immunoblots were prepared from extracts of INS-1 cells and were interrogated with antisera to beta-catenin: total protein (Santa Cruz), and active form with the mutated GSK-3 phosphorylation sites (UpState 8E7).
The transcriptional activation of Wnt target genes requires the association of TCF7L2 with nuclear beta-catenin. Therefore, we investigated whether active TCF7L2 is necessary for SDF-1-induced Wnt signaling. […]

[2] = test system: PDX-1; assay: PDX-1 mRNA by RT-PCR in alphaTC-1 cells; conditions: SDF-1 10 nM, by 12 hours
Experimental: FIG. 22. SDF-1 induces the expression of PDX-1 in alphaTC-1 cells. PDX-1 mRNA is induced by 12 hours after the addition of SDF-1 (10 nM), determined by RT-PCR. M=marker lane.

[3] = test system: mouse islets; assay: GLP-1 production in mouse islets ex vivo, radioimmunoassay; conditions: batches of 50 islets, medium 1 and 4 hours, lysate 4 hr; SDF-1 10 nM
Experimental: FIG. 37. Cytokines and SDF-1 stimulate GLP-1 production in mouse islets ex vivo. Batches of 50 islets were treated with control, cytokine mixture, or 10 nM SDF-1. Medium was collected in 1 hr and 4 hr. Islet lysate was collected in 4 hr. GLP-1. Immunoreactive protein was measured by radioimmunoassay.
Batches of 50 islets were treated with a control vehicle, a cytokine mixture, or 10 nM SDF-1. Medium was collected from each batch at 1 hour and 4 hours, and islet lysate was collected in 4 hr. the concentration of GLP-1 contained in each sample collected was measured by radioimmunoassay of the immunoreactive protein.

[4] = test system: prohormone convertase PC1/3; assay: PC1/3 expression by QPCR in alphaTC-1 cells; conditions: by one hour after addition of SDF-1, QPCR
Description: FIG. 19. […] Determined by QPCR. High priority experiments planned are to examine PC1/3 protein expression in isolated mouse islets using Western immunoblot, immunocytochemistry, and bioassays for active PC 1/3.

[5] = test system: INS-1 cells; assay: ATP-lite cell viability assay, serum deprivation, SDF-1 with AMD3100; conditions: serum-free medium, SDF-1 2 nM, day 6
Experimental: ATP lite cell viability assay: INS-1 cells were plated in 96 well plates. SDF-1 (2 nM) and AMD3100 were added at day 0, 2, 4 and cell viability was measured at day 6 using relative light units (RLU) as compared to control. N=6.
INS-1 cells were plated in 96 well plates in control medium (no serum) or a medium containing 2% serum. SDF-1 (2 nM) and SDF-1 (2 nM) along with various concentrations of AMD3100 (2 uM, 0.4 uM, 80 nM, 16 nM) were added to different cell groups incubated in serum-free medium at days 0, 2, 4, and cell viability was measured at day 6 using relative light units (RLU) as compared to control.

[6] = test system: INS-1 cells; assay: Real time RT-PCR of beta-catenin and cyclin D1 mRNA in INS-1 cells; conditions: SDF-1 4 hr, relative to vehicle-treated control
Experimental: FIG. 9. […] Data are normalized by using the housekeeping gene GADPH as an internal control and represent means±S.D. of three independent experiments. Statistical significance is depicted as (p<0.01) when compared with control values.
Gene expression profiling on focused microarrays INS-1 cells were untreated or treated with 10 nM SDF-1 for 4 hrs. Total RNA was isolated and Biotin-labeled complimentary RNAs were generated using the TrueLabeling-AMP Linear RNA Amplification Kit (SuperArray Bioscience Corp.) The Wnt-signaling pathway-focused microarray filters (118 probes) (SuperArray Bioscience Corp.) were hybridized with these biotin-labeled targets (5 microg/array at 60 C overnight. The filters were washed and subsequently incubated with alkaline phosphatase-conjugated streptavidin and CDPStar substrate. The Chemiluminescent images were captured using Kodak Digital Station 440 (Perkin Elmer). For quantification, the spot intensity was measured and normalized to the value of the housekeeping gene GAPDH. Fold-changes in gene expression levels were determined by comparisons of hybridization densities of SDF-1 treated versus untreated INS-1 cells. Real time RT-PCR was carried out by using the SYBR® Green QPCR kit (Stratagene). Briefly, INS-1 cells were treated with 10 nM SDF-1 or PBS vehicle control for 4 h. […]

For “SDF-1: small, secreted 70 amino acid peptide chemokine, SEQ ID NO: 1, ligand of CXCR4”, the “level of active beta-catenin (unphosphorylated on Ser-33 and Ser-37)” value ([1]; 30 min after SDF-1 treatment) was “increased”, the total beta-catenin ([1]; after 24-48 hours of SDF-1 treatment) was “substantial increase” and the “PDX-1 mRNA expression” value [2] was “induced”. The “production of GLP-1 by mouse islets” value [3] was “induces the production of GLP-1”, the PC1/3 expression [4] was “induces prohormone convertase PC1/3 expression” and the “protection of cell viability in serum deprivation” value [5] was “protects INS-1 cells from dying”. The “beta-catenin mRNA expression” value [6] was 3 fold and the “cyclin D1 mRNA expression” value [6] was 2 fold.
